# Assay results published in PubChem BioAssay (NCI).
#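 Tested at 5 concentrations; 48 h exposure; 96-well plates; endpoints linearly interpolated, else capped at highest concentration. GI50 is the concentration that inhibits growth by half. TGI is the concentration that stops growth completely.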
# Columns and labels:
# Assay in all cases: growth of human tumour cells (NCI), 48 h
# HL-60(TB) leukemia = system: HL-60(TB) leukemia
# SK-MEL-28 melanoma = system: SK-MEL-28 melanoma
# OVCAR-4 ovarian = system: OVCAR-4 ovarian
# NCI-H460 lung = system: NCI-H460 lung
# CCRF-CEM leukemia = system: CCRF-CEM leukemia
# SN12C renal = system: SN12C renal
# SK-OV-3 ovarian = system: SK-OV-3 ovarian
# HOP-62 NSCLC = system: HOP-62 NSCLC
# KM12 colon = system: KM12 colon
# HOP-92 NSCLC = system: HOP-92 NSCLC
SMILES,GI50 (HL-60(TB) leukemia),GI50 (SK-MEL-28 melanoma),TGI (SK-MEL-28 melanoma),GI50 (OVCAR-4 ovarian),TGI (OVCAR-4 ovarian),GI50 (NCI-H460 lung),TGI (NCI-H460 lung),GI50 (CCRF-CEM leukemia),TGI (CCRF-CEM leukemia),GI50 (SN12C renal),TGI (SN12C renal),GI50 (SK-OV-3 ovarian),TGI (SK-OV-3 ovarian),GI50 (HOP-62 NSCLC),TGI (HOP-62 NSCLC),TGI (KM12 colon),GI50 (HOP-92 NSCLC),TGI (HOP-92 NSCLC),TGI (HL-60(TB) leukemia),GI50 (KM12 colon)
CSc1ccc2c(c1)C(=O)c1c-2n(CCCN=[N+]=[N-])c(=O)c2cc([N+](=O)[O-])ccc12,1.17 µM,51.4 µM,> 100 µM,> 100 µM,> 100 µM,0.322 µM,> 100 µM,0.239 µM,10.9 µM,1.63 µM,> 100 µM,0.861 µM,> 30.5 µM,0.623 µM,29 µM,> 100 µM,5.24 µM,> 100 µM,,
O=C1C=CC(=O)N1CCCCCCCCCCN1C(=O)C=CC1=O,8.72 µM,14.8 µM,30.9 µM,8.38 µM,24.8 µM,33.3 µM,> 100 µM,4.05 µM,> 100 µM,15.1 µM,29.5 µM,> 100 µM,> 100 µM,16.2 µM,31.3 µM,30.3 µM,20.8 µM,37 µM,31.4 µM,15.4 µM
O=C(Nc1cccc2ccccc12)c1cc2ccccc2cc1O,2.37 µM,3.58 µM,22.4 µM,2.69 µM,35.9 µM,2.06 µM,5.87 µM,2.91 µM,12.1 µM,2.4 µM,9.97 µM,2.5 µM,7.55 µM,3.25 µM,18.1 µM,8.01 µM,0.969 µM,4.25 µM,8.22 µM,2.73 µM
Cc1cccc2c(=O)c3c(sc12)c(NCCN)nc1ccccc13,0.864 µM,0.936 µM,1.7 µM,0.935 µM,2.16 µM,0.768 µM,1.54 µM,0.878 µM,1.83 µM,0.754 µM,1.54 µM,3.17 µM,9.9 µM,0.728 µM,1.65 µM,1.77 µM,0.691 µM,2.45 µM,1.74 µM,0.913 µM
O=C(Cc1nc2ccccc2s1)NC12CC3CC(CC(C3)C1)C2,,,> 100 µM,,> 100 µM,,> 100 µM,,> 100 µM,,> 100 µM,,> 100 µM,,> 100 µM,> 100 µM,,> 100 µM,> 100 µM,
Cc1ccc(S(=O)(=O)N2C/C(=C\c3cc(F)cc(F)c3)C(=O)/C(=C/c3cc(F)cc(F)c3)C2)cc1,0.243 µM,0.388 µM,1.32 µM,0.367 µM,3.57 µM,0.742 µM,2.91 µM,0.0748 µM,0.951 µM,0.272 µM,0.861 µM,2.3 µM,7.53 µM,1.5 µM,4.66 µM,0.704 µM,1.1 µM,3.17 µM,1.05 µM,0.268 µM
O=CN/C=C/c1ccccc1O,,,> 100 µM,,> 100 µM,,> 100 µM,,> 100 µM,,> 100 µM,,> 100 µM,,> 100 µM,> 100 µM,,> 100 µM,> 100 µM,
O=C(O)C#Cc1ccc([N+](=O)[O-])cc1,,,> 100 µM,,> 100 µM,,> 100 µM,,> 100 µM,,> 100 µM,,> 100 µM,,> 100 µM,> 100 µM,,> 100 µM,> 100 µM,
CCCNNC(=O)c1ccc(CNC(=O)/C=C/c2ccccc2)cc1,0.219 µM,0.146 µM,0.857 µM,0.375 µM,> 100 µM,0.286 µM,> 100 µM,0.115 µM,> 100 µM,0.313 µM,> 100 µM,0.134 µM,1.47 µM,0.11 µM,> 100 µM,5.05 µM,0.0821 µM,0.609 µM,> 100 µM,0.232 µM
CCC1=C[C@H]2CN(CCc3c([nH]c4ccccc34)[C@@](C(=O)OC)(c3cc4c(cc3OC)N(C)[C@H]3[C@@](O)(C(=O)OC)[C@H](OC(C)=O)[C@]5(CC)[C@@H]6C[C@@H]6CN6CC[C@]43[C@@H]65)C2)C1,0.0265 µM,2.91 µM,6.48 µM,0.375 µM,> 25 µM,0.0383 µM,2.65 µM,0.0495 µM,4.48 µM,0.0932 µM,4.99 µM,0.0358 µM,12.2 µM,0.0249 µM,4.43 µM,3.8 µM,0.109 µM,1.76 µM,0.14 µM,0.0313 µM
N=C(N)c1ccc(-c2ccc(-c3ccco3)o2)cc1F,2.19 µM,1.81 µM,3.67 µM,2.88 µM,11.1 µM,1.98 µM,4.17 µM,2.77 µM,8.16 µM,2.01 µM,6.53 µM,3.2 µM,11.5 µM,2.96 µM,10.4 µM,3.62 µM,0.968 µM,2.98 µM,4.29 µM,1.92 µM
N#Cc1ccccc1/C=N/O,,,> 100 µM,,> 100 µM,,> 100 µM,,> 85 µM,,> 100 µM,,> 100 µM,,> 100 µM,> 100 µM,,> 100 µM,> 62.2 µM,
